# Tests used:
# Assay in all cases: relative viability (nuclei count vs DMSO), 5 days (fraction); higher = more cells survive
# [1] = compound: C[As](C)SC[C@H](NC(=O)CC[C@H](N)C(=O)O)C(=O)NCC(=O)O [Darinaparsin] + CC(=O)Nc1cccc(-n2c(=O)n(C3CC3)c(=O)c3c(Nc4ccc(I)cc4F)n(C)c(=O)c(C)c32)c1 [Trametinib] (partner 0.02 µM)
# Method in brief: (§1)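 Relative viability is defined as nuclei in treated wells over nuclei in vehicle wells. Duplicate plates were run and medians reported. Lung cancer cell lines in 1536-well plates were dosed by pin tool one day after seeding, with one drug or with a fixed anchor-drug dose plus five library-drug doses (not always all listed) in √10 steps, and nuclei were counted after 5 days.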
# [2] = compound: CC1=C(C=C(C=C1)NC(=O)C2=CC(=CC=C2)C(C)(C)C#N)NC3=CC4=C(C=C3)N=CN(C4=O)C [AZ628] + Cc1nc(NC(=O)N2CCC[C@H]2C(N)=O)sc1-c1ccnc(C(C)(C)C(F)(F)F)c1 [Alpelisib] (partner 2 µM)
# Method in brief: as §1
# [3] = compound: CC1=C(C=C(C=C1)NC(=O)C2=CC(=CC=C2)C(C)(C)C#N)NC3=CC4=C(C=C3)N=CN(C4=O)C [AZ628] + CC1(C)CCC(c2ccc(Cl)cc2)=C(CN2CCN(c3ccc(C(=O)NS(=O)(=O)c4ccc(N[C@H](CCN5CCOCC5)CSc5ccccc5)c(S(=O)(=O)C(F)(F)F)c4)cc3)CC2)C1 [Navitoclax] (partner 0.5 µM)
# Method in brief: as §1
# [4] = compound: CC1=C(C=C(C=C1)NC(=O)C2=CC(=CC=C2)C(C)(C)C#N)NC3=CC4=C(C=C3)N=CN(C4=O)C [AZ628] + COc1cc2c(Oc3ccc(NC(=O)C4(C(=O)Nc5ccc(F)cc5)CC4)cc3F)ccnc2cc1OCCCN1CCOCC1 [Foretinib] (partner 0.25 µM)
# Method in brief: as §1
Cell Line,relative viability ([1]; first compound 0.08 µM),relative viability ([1]; first compound 0.8 µM),relative viability ([1]; first compound 2.53 µM),relative viability ([1]; first compound 8 µM),relative viability ([2]; first compound 0.08 µM),relative viability ([2]; first compound 0.253 µM),relative viability ([2]; first compound 0.8 µM),relative viability ([2]; first compound 2.53 µM),relative viability ([2]; first compound 8 µM),relative viability ([3]; first compound 0.08 µM),relative viability ([3]; first compound 0.253 µM),relative viability ([3]; first compound 0.8 µM),relative viability ([3]; first compound 2.53 µM),relative viability ([3]; first compound 8 µM),relative viability ([4]; first compound 0.08 µM),relative viability ([4]; first compound 0.253 µM),relative viability ([4]; first compound 0.8 µM),relative viability ([4]; first compound 2.53 µM),relative viability ([4]; first compound 8 µM)
NCI-H1975,0.35,0.382,0.328,0.307,0.603,0.701,0.594,0.66,0.328,1.09,1.04,1.02,1.04,0.654,0.905,0.922,0.872,0.918,0.582
BEN,1.18,0.998,0.991,1.12,1.22,0.87,0.791,0.963,0.835,0.0576,0.0642,0.0651,0.0689,0.0471,0.694,0.511,0.544,0.561,0.571
NCI-H1437,0.594,0.562,0.505,0.674,0.958,0.976,1.02,1.01,0.988,1.09,1.09,1.19,1.25,1.07,1.26,1.13,1.25,1.28,1.23
NCI-H1734,0.724,0.611,0.655,0.677,0.658,0.595,0.571,0.619,0.498,0.864,0.718,0.818,0.791,0.502,0.667,0.759,0.686,0.753,0.416
NCI-H596,0.762,0.748,0.856,0.755,0.504,0.553,0.567,0.498,0.422,0.839,1,1.08,1.03,0.931,0.867,1.05,0.913,0.905,0.991
LOU-NH91,0.848,0.747,0.851,0.822,0.714,0.747,0.691,0.687,0.577,0.681,0.713,0.713,0.654,0.4,0.956,0.961,0.956,0.95,0.821
NCI-H2342,0.966,0.843,0.789,0.73,,,,,,,,,,,1.08,1.01,1.16,1.24,1.12
NCI-H522,0.704,0.888,0.682,0.816,,,,,,,,,,,,,,,
SK-MES-1,0.558,0.521,0.551,0.61,0.821,0.956,0.823,0.779,0.674,1.22,1.25,1.39,1.23,1.21,0.837,0.894,0.801,0.771,0.846
UMC-11,0.781,0.643,0.729,0.704,1,0.987,0.949,1.13,1.1,0.311,0.378,0.334,0.313,0.418,1.13,0.916,0.951,1,1.19
LK-2,0.936,0.61,0.847,0.878,1.23,1.27,0.834,1.08,0.296,1.07,0.887,0.847,0.818,0.634,1.42,0.985,1.09,1.28,0.587
CAL-12T,0.333,0.376,0.383,0.306,1.29,,1.2,1.34,0.503,1.33,,1.24,1.28,0.826,1.16,1.05,1.13,0.994,0.559
PC-3 [JPC-3],0.758,0.737,0.704,0.659,1.01,1.08,1.06,1.11,0.97,0.835,0.782,0.875,0.814,0.817,1.01,1.07,1.05,1.03,0.92
NCI-H1651,0.825,0.784,0.813,0.898,1.12,1.02,0.84,0.884,0.995,1.07,1.02,1.2,1.25,1.1,0.887,0.867,0.885,0.774,0.856
NCI-H650,0.856,1.01,1.04,0.956,1.32,1.44,1.38,1.29,0.939,,,,,,1.02,1.21,1.19,1.14,1.13
HOP-62,0.401,0.385,0.316,0.428,1.02,1.11,0.947,1.24,0.451,1.09,1.17,1.02,1.1,0.729,1.05,1.07,1.02,0.999,0.629
LC-2-ad,0.975,0.903,0.815,1.08,0.968,0.865,0.982,0.851,0.466,0.406,0.348,0.589,0.54,0.347,1.02,1.06,0.947,0.978,0.863
EPLC-272H,0.292,0.311,0.31,0.305,0.951,0.85,0.892,0.908,0.641,1.02,1.04,1.24,1.1,0.709,0.671,0.625,0.654,0.581,0.309
SW 900,0.73,,0.813,0.985,,,,,,,,,,,0.931,0.874,0.971,0.685,0.619
EBC-1,,,,,0.865,0.859,0.949,0.811,0.298,0.349,0.427,0.325,0.326,0.224,0.117,0.11,0.111,0.0929,0.0846

Cell Line,relative viability ([1]; first compound 0.08 µM),relative viability ([1]; first compound 0.8 µM),relative viability ([1]; first compound 2.53 µM),relative viability ([1]; first compound 8 µM),relative viability ([2]; first compound 0.08 µM),relative viability ([2]; first compound 0.253 µM),relative viability ([2]; first compound 0.8 µM),relative viability ([2]; first compound 2.53 µM),relative viability ([2]; first compound 8 µM),relative viability ([3]; first compound 0.08 µM),relative viability ([3]; first compound 0.253 µM),relative viability ([3]; first compound 0.8 µM),relative viability ([3]; first compound 2.53 µM),relative viability ([3]; first compound 8 µM),relative viability ([4]; first compound 0.08 µM),relative viability ([4]; first compound 0.253 µM),relative viability ([4]; first compound 0.8 µM),relative viability ([4]; first compound 2.53 µM),relative viability ([4]; first compound 8 µM)
HCC-44,1.11,1.2,0.942,1.1,0.754,0.796,0.801,0.68,0.705,0.966,1,0.996,1.06,0.874,,,,,
NCI-H441,0.507,0.471,0.429,0.295,0.781,0.769,0.814,0.637,0.802,0.565,0.508,0.765,0.902,0.633,0.94,0.962,0.896,0.901,0.846
LU99A,0.529,0.62,0.545,0.55,0.456,0.478,0.628,0.554,0.216,0.856,0.859,0.865,0.895,0.296,0.862,0.767,0.833,0.861,0.431
NCI-H661,0.646,0.618,0.532,0.677,0.647,0.401,0.497,0.598,0.363,,,,,,1.12,0.974,0.846,0.866,0.832
PC-14,1.08,0.798,0.741,0.923,1,0.854,0.923,1.01,0.751,1.03,0.997,1.1,1.17,0.977,0.95,0.916,0.949,0.945,0.765
SK-LU-1,0.625,0.401,0.382,0.521,0.733,1.12,0.802,0.934,0.512,0.502,0.878,1.06,0.886,0.902,,0.75,0.685,0.628,0.589
NCI-H1299,,,,,1.01,1.22,1.22,1.24,0.763,1.1,1.15,1.17,1.19,0.975,1.12,1.3,1.3,1.24,0.58
A549,,,,,0.688,0.677,0.5,0.565,0.258,1.19,1.16,1.02,1.12,0.589,0.931,0.824,0.816,0.956,0.34
IA-LM,,,,,0.805,0.731,0.552,0.586,0.207,1.15,0.716,0.641,0.761,0.0904,1.28,1.04,0.821,0.861,0.2
Calu-6,,,,,0.937,0.835,0.416,0.541,0.171,0.926,0.494,0.317,0.595,0.152,0.867,0.726,0.636,0.816,0.142
NCI-H1648,,0.445,,0.408,,,,,,,,,,,,,,,
NCI-H1650,0.915,0.49,0.593,0.636,,,,,,1.34,1.22,1.38,1.15,0.949,1.33,1.34,1.42,1.26,1.02
NCI-H1623,,,,,,,,,,,,,,,0.848,0.829,0.62,0.764,0.498
NCI-H1703,,,,,0.216,0.2,0.215,0.213,0.181,0.751,0.311,0.294,0.354,0.253,0.327,0.41,0.415,0.302,0.413
ChaGo-K-1,0.914,0.862,0.785,0.984,,,,,,1.1,,0.751,1.1,1.14,0.962,0.837,0.924,0.916,0.751
LCLC-103H,0.69,0.659,0.675,0.765,0.924,1.07,0.981,0.986,0.919,,,,,,0.724,0.753,0.802,0.729,0.853
ABC-1,,,,,1.16,1.05,1.17,1.1,0.906,,,,,,0.96,1.17,1.19,0.944,0.943
NCI-H1563,,,,,0.982,0.874,0.858,0.967,0.893,,,,,,0.957,0.997,0.944,0.963,0.953
NCI-H1792,0.513,0.52,,0.557,0.788,0.679,0.522,0.607,0.425,0.682,0.619,0.545,0.591,0.44,,,,,
NCI-H358,0.112,0.129,0.134,0.145,0.745,0.639,0.668,0.571,0.389,,,,,,0.538,0.472,0.373,0.466,0.323
